Compound	melting point
Clc1nccc2[nH]cnc12	100 to 102 °C
COc1cccc(CNC(=O)c2cc3ccccc3c(=O)[nH]2)c1	206 to 210 °C
COc1cc(C=C2C(=O)CCc3c2ccc(OC)c3OC)c([N+](=O)[O-])cc1OC	70 to 72 °C
O=C(CC(=O)c1cccc(C(F)(F)F)c1NC(=O)C(F)F)Nc1nccs1	206 °C
CCOP(=O)(Cc1ccc2ccccc2c1O)OCC	90.1 to 91.3 °C
CC(C#N)=C1CCN(c2ccc(N3C[C@H](CNC(=O)C(Cl)(Cl)Cl)OC3=O)cc2F)CC1	166 to 168 °C
COc1nc2cc(Cl)ccc2c(=O)c2sccc12	195 to 197 °C
CCOP(=O)(OCC)C(CNC=NNC(=O)c1nc2ccccc2[nH]1)P(=O)(OCC)OCC	143 °C
COc1ccc(C=O)cc1OCc1nc(-c2ccccc2)oc1C	121 to 122 °C
Cc1c(-n2ccnc2)[nH]c2ccccc12	156 to 158 °C
FC(F)(F)c1ccc(COc2ccnc(CSc3nc4cscc4[nH]3)c2)cc1	141 to 143 °C
O=C(c1ccccc1)c1ccc2nccnc2c1	120 °C
Cc1nc(NC(=O)c2ccccc2)sc1C(=O)n1ccnc1	228 to 231 °C
Cc1ccc(N2C(=O)C(O)=C(C(=O)c3ccc(OC(F)(F)F)cc3)C2c2ccc(Cn3nccn3)cc2)nn1 (stereo unspecified)	277 °C
O=c1c2c(nc3ccc(Cl)cn13)C(=Cc1ccccc1)CC2	212 to 213 °C
Cc1cc(C(=O)O)cc(Cl)c1C1=NC(C)(C(C)C)C(=O)N1 (stereo unspecified)	245 to 248 °C
OC[C@@H]1Cc2ccccc2CN1C(=S)Nc1cccc2cnccc12	190 °C
CC1=CC(C=O)(NC(c2ccccc2)(c2ccccc2)c2ccccc2)NC=C1 (stereo unspecified)	213 °C
COC(OC)c1cc(C)nc(N)n1	69 to 71 °C
CCOC(=O)c1cn(C2CC2)c2c(F)c(F)c(Cl)cc2c1=O	169 to 172 °C
CCCCCCCCCCCCCCCCOCC(O)CN(CC(O)COCC(O)CO)C(=O)CCCCCCCCCCCCCCC (stereo unspecified)	78.2 to 79 °C

Compound	melting point
N=C(N)Nc1nc(-c2cccc(N)c2)cs1	180 to 182 °C
COC1C(Oc2ccc(N)cc2)OC(CO)C(OC2OC(CO)C(O)C(OC)C2O)C1O (stereo unspecified)	105 °C
S=c1[nH]ccc2ccsc12	187 to 189 °C
Cc1cc2c(c(C)c1NC(=O)CC(C)(C)C)CC(C)(C)O2	181 to 182 °C
Cn1cc(S(C)=O)c(=O)c2ccsc21 (stereo unspecified)	150 to 152 °C
CN(C)c1ccc(-c2cc(=O)c(C(=O)O)cn2-c2ccc(O)c(O)c2)cc1	223 to 227 °C
N#Cc1ccc(N2C(=O)[C@@H]3[C@H](O)CCN3C2=O)c2ccccc12 (relative stereo)	224 to 225 °C
O=[N+]([O-])C(CN(Cc1ccccc1)Cc1ccccc1)=C1NCCCS1	108 to 110 °C
Cc1nn(-c2ccccn2)c(=O)cc1-c1ccc(O)cc1	252 to 254 °C
Nc1cccc(OCc2ccccc2)c1NC(=O)c1ccc(OCc2ccccc2)c(C23CC4CC(CC(C4)C2)C3)c1	80 to 82 °C
Cc1ccc(C(=O)Nc2ccc(C)c(-c3nc(N(C)C)nc4c3CNC(=O)N4c3c(F)cccc3F)c2)cc1F	258 to 264 °C
C#CC1(OC(C)=O)CCC2C3CCC4=CC(=O)C=CC4(C)C3CCC21C (stereo unspecified)	172 to 173 °C
Nc1cccc2cc(-c3ccccc3)cnc12	64 to 66 °C
CC(=O)Nc1nc(C)c(S(=O)(=O)NCCN(C)C)s1	143 °C
O=C(O)COc1nnc(-c2ccc3c(c2)CCO3)o1	151 to 153 °C
CCOC(=O)C(=NOC)C(C)=NNC(C)=O	190 to 192 °C
Nc1nc(N)c(-c2ccc(Cl)cc2Cl)c(COCc2ccccc2)n1	171 to 172 °C
COc1ccc(C(=O)c2ccccc2NC(=O)CNC(=O)OCc2ccccc2)cc1	97 to 98 °C
COc1ccc2c(c1)C(CC#N)C(=O)CC2 (stereo unspecified)	97 to 99 °C
CS(=O)(=O)c1ccc(-c2cc(C(=O)CCCO)nn2-c2ccc(C(F)(F)F)cc2)cc1	60 to 63 °C
